Measurements published in US7432307B2, “Modulators of retinol-retinol binding protein (RBP)-transthyretin (TTR) complex formation” (Sirion Therapeutics, Inc., priority 2004, dated 2008).
“Also recorded” adds a separate entry of the source.

Columns and labels:
[1] = target: T1, retinol-RBP-TTR complex (Homo sapiens, UniProt P02753); experiment: High-throughput FRET assay for detection of RBP/TTR interaction (Alexa430-TTR); format: binding; conditions: for inhibition of RBP-TTR interaction in high throughput assay: 384-well format, varied concentrations 0-4 μM, conditions of Example 7
T1 construct: purchased Sigma Chemical Co. (TTR only)
Source text: Reduction of serum retinol and RBP are correlated with concomitant reductions in toxic lipofliscin fluorophores. Because compounds that affect RBP-TTR interaction will directly affect fluorophore levels in the eye, a high-throughput screen for small molecules which prevent interaction of RBP with TTR was developed. This screen employs probe-labeled forms of RBP and TTR which participate in a unique fluorescence resonance energy transfer (FRET) event when complexed. Compounds which interfere with RBP-TTR interaction prevent FRET. […] The sample is incubated at 37° C. for 30 min and then illuminated with 330 nm light. The emission spectra are shown in the range of 400-600 nm. HPR binds to RBP and prevents interaction with TTR, and here this property of HPR is utilized here to validate the ability of this screen to detect inhibition of RBP-TTR interaction. […] Additionally, the design of this assay permits discrimination between compounds which interact with RBP versus those which interact with TTR. Thus, by using two distinct excitation energies (280 nm and 330 nm, for protein and retinol, respectively) and implementing simultaneous monitoring of the retinol and TTR-probe fluorescence, the “target” of a presumptive small molecule can be easily determined.
In order to facilitate screening of large numbers of test compounds, the RBP-TTR assay has been adapted to a 384-well plate format. This transition required re-evaluation of the reagent concentrations and minimal assay volume for maintaining solubility and detection sensitivity. Under the 384-well plate format, the assay can be efficiently performed in a 50 μl volume using 0.5 μM apo-RBP, 0.5 μM TTR, 2-8 μM test compound and 1 μM retinol. The microplate with minimal fluorescence background, best optical clarity and most appropriate well design was determined to be Corning's model #3711.
Accordingly, HPR was employed at varied concentrations (from 0-4 μM), using the conditions specified in Example 7, to evaluate the high throughput assay.
The mechanism of action underlying this effect can be explained by the disruption of RBP-TTR interactions. In order to explore this possibility and to further validate the RBP-TTR screen, the effects of all-trans retinoic and 13-cis retinoic acid, using the conditions the conditions specified for analysis of HPR, were examined.

[2] = system: serum retinol and RBP; conditions: cited from earlier work; for reduction in circulating RBP and circulating retinol in vivo: literature (several investigators; Berni et al. 1993)
[3] = HPR administered to wild type mice for 5 days, illumination, then retinoids in serum and ocular tissue; format: in vivo; conditions: mouse, ocular tissue, ip, 20 mg/kg i.p. in DMSO, read-out: HPR accumulation within ocular tissues during the treatment period
Description: In order to ensure that the observed effects of HPR in ABCA4 null mice were not due to the genetic mutation, HPR (20 mg/kg, i.p. in DMSO) was administered to wild type mice for 5 days. Control mice received only the DMSO vehicle. On the final day of HPR treatment, the mice were exposed to constant illumination (1000 lux for 10 min) order “stimulate” the visual cycle to generate visual chromophore. Immediately following the illumination period, the animals were sacrificed and the concentrations of retinoids in serum and ocular tissue were determined. […] As in the previous study, HPR caused a significant reduction in serum retinol (˜55%), ocular retinol (˜40%) and ocular retinal (˜30%). Although HPR did accumulate within ocular tissues during the treatment period (˜5 μM), no effect on LRAT or Rpe65/isomerase activities was observed.

[4] = target: T2, LRAT (Homo sapiens, UniProt O95237); experiment: In vitro analyses of LRAT activity; format: biochemical; conditions: HPR pre-incubated with enzyme source material
T2 sequence (O95237 1-230): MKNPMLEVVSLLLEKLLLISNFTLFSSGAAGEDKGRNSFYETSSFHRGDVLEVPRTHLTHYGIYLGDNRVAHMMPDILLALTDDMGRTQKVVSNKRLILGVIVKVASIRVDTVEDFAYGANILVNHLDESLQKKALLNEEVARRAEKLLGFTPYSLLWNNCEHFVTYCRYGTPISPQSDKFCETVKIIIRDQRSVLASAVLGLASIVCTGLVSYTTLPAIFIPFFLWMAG

[5] = target: RBP-TTR interaction (Homo sapiens, UniProt P02753); conditions: literature (Malpeli et al.; Holven et al.; Radu et al.); cited from earlier work
[6] = system: ABCA4 null mutant mice; experiment: HPR administered to ABCA4 null mutant mice for 28 days; serum retinol, ocular retinoids and A2E; format: in vivo
Description: In order to further explore the role of HPR in the visual cycle, the in vivo effects of HPR in mice have been examined. Thus, HPR was administered to ABCA4 null mutant mice (5-20 mg/kg, i.p. in DMSO) for periods of 28 days. Control mice received only the DMSO vehicle. At the end of the treatment period, the concentrations of retinol and HPR in serum and retinoid content in ocular tissues was measured. […] Thus, the calculated percent reduction for each of the measured retinoids, and A2E, was nearly identical (see FIG. 6). […] If systemically-administered HPR inhibits ocular LRAT, then reduction of ocular retinoids and A2E should exceed the reduction in serum retinol.
Genetic crosses of RBP4^−/− mice with ABCA4^−/− mice was undertaken to examine the role of RBP in mediation of retinol levels in serum and ocular tissue.

[7] = 5-20 mg/kg i.p. in DMSO, 28 days

| concentration at 5 days [3] | retinol and TTR-probe fluorescence (loss of complexation) ([1]; 1 μM HPR, 0.5 μM unlabeled RBP + 0.5 μM Alexa430-TTR, 37° C., 30 min, 330 nm excitation) | LRAT activity in vitro [4] | SMILES | inhibition of RBP-TTR interaction in high throughput assay [1] | reduction in circulating RBP and circulating retinol in vivo [2] | interaction of TTR with RBP in vitro [5] | reductions in A2E [6, 7] | reductions in ocular retinoids [6, 7] | reductions in serum retinol as a function of increasing serum HPR [6, 7] | effect on visual cycle proteins (e.g., LRAT) when administered systemically ([6]; systemic administration) | reductions in serum retinol and RBP ([2]; literature (Formelli et al.; Torrisi et al.)) |
| --- | --- | --- | --- | --- | --- | --- | --- | --- | --- | --- | --- |
|  |  |  | CC1=C(/C=C/C(C)=C/C=C/C(C)=C/C(=O)O)C(C)(C)CCC1 [all-trans retinoic acid, all-trans-retinoic acid] | entirely consistent with the in vivo data | observed in vivo |  |  |  |  |  |  |
| ~5 µM | significantly reduced | inhibition of LRAT activity | CC1=C(/C=C/C(C)=C/C=C/C(C)=C/C(=O)Nc2ccc(O)cc2)C(C)(C)CCC1 [HPR, N-(4-hydroxyphenyl)retinamide] | inhibit RBP-TTR interaction | established in vivo | interferes with the normal interaction of TTR with RBP; also recorded: effective inhibitor | commensurate reductions | commensurate reductions | Profound reductions | limited effect | profound reductions |
|  |  |  | CC1=C(/C=C/C(C)=C/C=C/C(C)=C\C(=O)O)C(C)(C)CCC1 [13-cis retinoic acid, 13-cis-retinoic acid] | entirely consistent with the in vivo data | observed in vivo |  |  |  |  |  |  |
